According to patent US20250129033A1, “METAP2 INHIBITORS AND USES THEREOF” (Yissum Research Development Company of the Hebrew …, priority 2022, published 2025):
Blank lines part the entries; values can stand above or below the compound they belong to.

Legend:
[1] = tested on: Choroidal Neovascularization (CNV); assay: Laser-induced CNV in mice; format: in vivo, C57Bl/6J mice; settings: Eylea, in the given dose and time
Source text: Laser-induced CNV was generated by a previously described technique with some modifications. C57Bl/6J mice (6-8 weeks) were anesthetized by intraperitoneal injections of a mixture of 85% ketamine and 15% xylazine. A mixture of 0.5% tropicamide and 0.5% phenylephrine hydrochloride was applied to both eyes to dilate the pupils. Lesions were induced by a diode pumped solid state laser (0.1 s; spot size, 100 μm; power 120 mW) around the optic nerve through a slit lamp delivery system using a Nidek while a hand-held cover slide was used as a contact lens. Only lesions in which a subretinal bubble or focal serous detachment of the retina developed were used for the experiments. For this purpose, 4 burns were performed per eye while leaving a space around the optic disc. Intravitreal injections of the treatments were performed using a PLI-100 Pico-Injector following the laser procedure. After 7 days mice were euthanized and their eyes were removed and fixed in 4% paraformaldehyde for 60 min. The cornea and lens were removed, and the entire retina was carefully dissected from the eyecup Choroid.
Blood vessels were labeled using a 1:200 dilution of isolectin IB4 conjugated with Alexa Fluor 488 or lectin-FITC. The eyecup was flat-mounted in an aqua-mount with the sclera facing down and the choroid facing up. […] The CNV area (presented in μm2) in choroidal flat mount was evaluated using ImageJ software […]

MetAP2 = MetAP2 (Homo sapiens, UniProt P50579); assay: MetAp2 enzymatic assay, L-Met-AMC substrate (Experimental Set-Up 1); format: biochemical
Chain of MetAP2 (P50579 whole entry): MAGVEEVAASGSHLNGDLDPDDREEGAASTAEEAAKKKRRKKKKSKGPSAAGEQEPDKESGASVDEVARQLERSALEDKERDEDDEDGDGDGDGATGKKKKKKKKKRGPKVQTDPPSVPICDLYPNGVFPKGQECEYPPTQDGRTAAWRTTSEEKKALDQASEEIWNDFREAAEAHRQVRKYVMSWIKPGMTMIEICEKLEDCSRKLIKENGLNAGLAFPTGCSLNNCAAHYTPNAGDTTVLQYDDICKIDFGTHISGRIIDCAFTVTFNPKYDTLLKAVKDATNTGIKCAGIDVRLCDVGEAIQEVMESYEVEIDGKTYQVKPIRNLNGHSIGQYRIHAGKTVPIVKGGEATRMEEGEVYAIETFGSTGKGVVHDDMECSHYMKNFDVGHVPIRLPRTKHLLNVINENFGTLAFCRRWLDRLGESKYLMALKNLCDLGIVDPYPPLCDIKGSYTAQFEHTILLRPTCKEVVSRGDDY
Method: Quantitative MetAP2 activity assay by N-terminal cleavage of substrate 7-amino-4-methyl-courmarin was performed as follows: The activity of MetAP2 was measured using fluorescent peptide substrate L-Met-AMC (Santa Cruz Biotechnology, Inc, sc-207807) as described by Garrabrant et al. (Angiogenesis 7: 91-96, 2004). Briefly, the reaction (100 μl final) was initiated by adding 0.5 μg of MetAP2 or 5 μg HUVEC homogenate to reaction buffer containing 50 mM HEPES (pH 7.4), 100 mM NaCl, 0.1 mM CoCl2, 1 mg/ml PEG6000, and 250 μM L-Met-AMC substrate. The assay was prepared in black flat-bottomed 96-well microtiter plates and fluorescence was measured every 20 s over a period of 60 min at 25° C. using a microplate fluorometer (Bioteck, SynergyHT), with excitation and emission wavelengths set at 360 and 440 nm respectively. As a control the inhibition of the enzyme was obtained by incubating it with TNP-470 for 15 min before the addition of the substrate.
The inhibitory effect of the compounds were tested in MetAp2 enzymatic assay.

[2] = cited from earlier work

Compound: Eylea: the standard of care, as treatment for “wet” AMD [reference compound]
effect on mouse laser induced CNV [1]: 59%

activity in inhibiting the catalytic activity of MetAp2 compared to TNP-470 (MetAP2): almost identical to TNP-470
inhibitory effect in MetAp2 enzymatic assay (ranking among compounds) (MetAP2): most active
Compound: CO[C@@H]1[C@H](OC(=O)C23CC4(C)CC(C)(CC(C)(C4)C2)C3)CC[C@]2(CO2)[C@H]1[C@@]1(C)O[C@@H]1CC=C(C)C [AD-3306, Fumagillol-3,5,7-trimethyladamantane-1-carboxylate]

Compound: CO[C@@H]1[C@H](OC(=O)NC(=O)CCl)CC[C@]2(CO2)[C@H]1[C@@]1(C)O[C@@H]1CC=C(C)C [AD-3201]
inhibition of the catalytic activity of MetAp2 (MetAP2; 0.5 microM): 75%
inhibition of the catalytic activity of MetAp2 (MetAP2; 2.5 microM): 97%

Compound: CO[C@H]1C(C2(C)O[C@@H]2CC=C(C)C)[C@]2(CC[C@H]1OC(=O)NC(=O)CCl)CO2 (some centres unmarked) [TNP-470, O-chloroacetylcarbamoyl fumagillol]
inhibition at 2.5 µM (MetAP2; 2.5 microM, read-out: inhibition of the catalytic activity of MetAp2): 95%
adverse side-effects ([2]; in high doses): reversible neurotoxicity in some patients
half-life in plasma ([2]; intravenous formulation): minutes
